Some results are limits rather than exact numbers.

Assay [1] has as its system human foreskin fibroblasts (HFF). The assay can be described thus: Fibroblast proliferation assay. As to conditions: HFF, day 2; for inhibition at 1 µM / inhibition at 0.05 µM / inhibition at 0.1 µM / inhibition at 0.5 µM / inhibition at 5 µM / inhibition at 10 µM: Homo sapiens, 48 h, read-out: Percent Inhibition of Cells Per Concentration of Test Compound; for inhibition at 0.05 µM / inhibition at 0.1 µM / inhibition at 0.5 µM / inhibition at 5 µM / inhibition at 10 µM: Fibroblast. The format is cell-based. Here is the method:
Fibroblasts obtained from the same tissue were grown in monolayer culture using Dulbecco's modified minimal essential medium supplemented with nonessential amino acids and 10% fetal bovine serum (DMEM-FBS) as culture medium. Both keratinocytes and fibroblasts were maintained at 37° C. in an atmosphere of 95% air and 5% CO2. Cells were subcultured by exposure to trypsin/ethylenediamine tetraacetic acid (EDTA) and used at passage 2-4.
(§1) Keratinocyte proliferation was assessed by seeding 4×10^4 cells per well in a 24-well plate using KGM as culture medium. After the cells had attached (overnight), they were washed and triplicate samples were harvested for zero-time counts. DMSO served as a negative control. Proliferation was measured on day 2 by releasing the cells with trypsin/EDTA and enumerating them using a particle counter (Coulter Electronics, Hialeah, Fla.). Fibroblast proliferation studies were conducted in a similar manner except that […] was used as culture medium.
(§2) KC refers to human keratinocytes. HFF refers to human foreskin fibroblasts. The cLogP values were calculated using ChemDraw™ (CambridgeSoft).

Another assay concerns human keratinocytes (KC). Nature of the assay: Keratinocyte proliferation assay. As to conditions: KC, day 2; for inhibition at 0.05 µM / inhibition at 0.1 µM / inhibition at 0.5 µM / inhibition at 1 µM / inhibition at 5 µM / inhibition at 10 µM: Homo sapiens, Keratinocyte, 48 h, read-out: Percent Inhibition of Cells Per Concentration of Test Compound. The format is cell-based. Here is the method:
Epidermal keratinocytes were isolated from fresh tissue biopsies as described previously (Varani et al., (1994) J. Clin. Invest. 94:1747-1753). Primary and early passage cells were maintained in Keratinocyte Growth Medium (KGM) (Lonza). KGM contains the same basal medium as KBM but is further supplemented with a mixture of growth factors including 0.1 ng per mL EGF, 0.5 μg per mL insulin, and 0.4% bovine pituitary extract. In addition to using low-passage keratinocytes, we also used the HaCat line of immortalized human epidermal keratinocytes in some experiments. The immortalized keratinocytes were handled exactly as low-passage keratinocytes.
as §1, §2

With `Cc1cc(C)cc(CC2N=C(c3ccc(O)cc3)c3cc(Cl)ccc3N(C)C2=O)c1` (stereo not drawn) [Compound 2, (Z)-3-(3,5-Dimethylbenzyl)-7-chloro-5-(4-hydroxyphenyl)-1-methyl-1H-benzo[e][1,4]diazepin-2(3H)-one], the inhibition at 1 µM in assay [1] (1 μM) was below 20%; in the assay on human keratinocytes (KC) (1 μM), at least 20%. Besides, the inhibition at 0.05 µM (in assay [1] (0.05 μM); with human keratinocytes (KC) (0.05 μM)) was below 20% throughout. The inhibition at 0.1 µM (in assay [1] (0.1 μM); in the assay with human keratinocytes (KC) (0.1 μM)) was below 20% in each case. For the same compound, the results for the inhibition at 0.5 µM (in assay [1] (0.5 μM); in the assay on human keratinocytes (KC) (0.5 μM)) were below 20% and at least 20%, respectively. In addition, the inhibition at 5 µM (in assay [1] (5 μM); in the assay on human keratinocytes (KC) (5 μM)) was at least 90% throughout. Besides, the inhibition at 10 µM (in assay [1] (10 μM); in the assay on human keratinocytes (KC) (10 μM)) was at least 90% each time.
On to `CCc1cccc(CC)c1CC1N=C(c2ccc(O)cc2)c2cc(Cl)ccc2NC1=O` (stereo not drawn) [Compound 3, (Z)-3-(2,6-Diethylbenzyl)-7-chloro-5-(4-hydroxyphenyl)-1H-benzo[e][1,4]diazepin-2(3H)-one], for which the values for the inhibition at 1 µM (in assay [1] (1 μM); in the assay on human keratinocytes (KC) (1 μM)) were below 20% and at least 20%, respectively. The inhibition at 0.05 µM (in assay [1] (0.05 μM); with human keratinocytes (KC) (0.05 μM)) was below 20% each time. Besides, the inhibition at 0.1 µM (in assay [1] (0.1 μM); in the assay with human keratinocytes (KC) (0.1 μM)) was below 20% each time. For the same compound, the inhibition at 0.5 µM (in assay [1] (0.5 μM); with human keratinocytes (KC) (0.5 μM)) was below 20% each time. Further, the inhibition at 5 µM (in assay [1] (5 μM); in the assay with human keratinocytes (KC) (5 μM)) was at least 90% throughout. The inhibition at 10 µM (in assay [1] (10 μM); in the assay on human keratinocytes (KC) (10 μM)) was at least 90% in each case.
In the case of `CCc1ccc(CC2N=C(c3ccc(O)cc3)c3cc(Cl)ccc3N(C)C2=O)cc1CC` (stereo not drawn) [Compound 4, (Z)-3-(3,4-Diethylbenzyl)-7-chloro-5-(4-hydroxyphenyl)-1-methyl-11H-benzo[e][1,4]diazepin-2(3H)-one], the “Percent Inhibition of Cells Per Concentration of Test Compound” value in assay [1] (0.05 μM) is below 20%; in assay [1] (0.1 μM), below 20%; in assay [1] (0.5 μM), below 20%; in assay [1] (1 μM) it was below 20%; in assay [1] (5 μM) it was “≧90%”; in assay [1] (10 μM), “≧90%”. Further, the “Percent Inhibition of Cells Per Concentration of Test Compound” value in the assay on human keratinocytes (KC) (0.05 μM) is below 20%; in the assay with human keratinocytes (KC) (0.1 μM), below 20%; with human keratinocytes (KC) (0.5 μM), below 20%; in the assay on human keratinocytes (KC) (1 μM), “≧20%”; with human keratinocytes (KC) (5 μM), “≧90%”; in the assay on human keratinocytes (KC) (10 μM), “≧90%”.
As for `CCc1cc(CC)cc(CC2N=C(c3ccc(O)cc3)c3cc(Cl)ccc3NC2=O)c1` (stereo not drawn) [Compound 5, (Z)-3-(3,5-Diethylbenzyl)-7-chloro-5-(4-hydroxyphenyl)-1H-benzo[e][1,4]diazepin-2(3H)-one], the figures for the inhibition at 1 µM (in assay [1] (1 μM); with human keratinocytes (KC) (1 μM)) were below 20% and at least 20%, respectively. The inhibition at 0.05 µM (in assay [1] (0.05 μM); in the assay on human keratinocytes (KC) (0.05 μM)) was below 20% in each case. Moreover, the inhibition at 0.1 µM (in assay [1] (0.1 μM); in the assay on human keratinocytes (KC) (0.1 μM)) was below 20% throughout. For the same compound, the results for the inhibition at 0.5 µM (in assay [1] (0.5 μM); with human keratinocytes (KC) (0.5 μM)) were below 20% and at least 20%, respectively. The inhibition at 5 µM (in assay [1] (5 μM); with human keratinocytes (KC) (5 μM)) was at least 90% throughout. The inhibition at 10 µM (in assay [1] (10 μM); with human keratinocytes (KC) (10 μM)) was at least 90% in each case.
As for `CCc1cc(CC)cc(CC2N=C(c3ccc(O)cc3)c3cc(Cl)ccc3N(C)C2=O)c1` (stereo not drawn) [Compound 6, (Z)-3-(3,5-Diethylbenzyl)-7-chloro-5-(4-hydroxyphenyl)-1-methyl-1H-benzo[e][1,4]diazepin-2(3H)-one], the inhibition at 1 µM (in assay [1] (1 μM); with human keratinocytes (KC) (1 μM)) was below 20% throughout. For the same compound, the inhibition at 0.05 µM (in assay [1] (0.05 μM); with human keratinocytes (KC) (0.05 μM)) was below 20% each time. Besides, the inhibition at 0.1 µM (in assay [1] (0.1 μM); in the assay on human keratinocytes (KC) (0.1 μM)) was below 20% in each case. The inhibition at 0.5 µM (in assay [1] (0.5 μM); with human keratinocytes (KC) (0.5 μM)) was below 20% each time. Also, the inhibition at 5 µM (in assay [1] (5 μM); with human keratinocytes (KC) (5 μM)) was at least 90% each time. In addition, the inhibition at 10 µM (in assay [1] (10 μM); in the assay on human keratinocytes (KC) (10 μM)) was at least 90% each time.
Turning to `CC(C)c1ccc(CC2N=C(c3ccc(O)cc3)c3cc(Cl)ccc3NC2=O)cc1` (stereo not drawn) [Compound 7, (Z)-3-(4-Isopropylbenzyl)-7-chloro-5-(4-hydroxyphenyl)-1H-benzo[e][1,4]diazepin-2(3H)-one], the inhibition at 1 µM (in assay [1] (1 μM); with human keratinocytes (KC) (1 μM)) was at least 20% each time. The inhibition at 0.05 µM (in assay [1] (0.05 μM); with human keratinocytes (KC) (0.05 μM)) was below 20% throughout. The inhibition at 0.1 µM (in assay [1] (0.1 μM); in the assay with human keratinocytes (KC) (0.1 μM)) was below 20% throughout. Moreover, the inhibition at 0.5 µM (in assay [1] (0.5 μM); in the assay with human keratinocytes (KC) (0.5 μM)) was below 20% each time. The inhibition at 5 µM (in assay [1] (5 μM); in the assay on human keratinocytes (KC) (5 μM)) was at least 90% each time. Also, the inhibition at 10 µM (in assay [1] (10 μM); in the assay with human keratinocytes (KC) (10 μM)) was at least 90% each time.
As for `CC(C)c1ccc(CC2N=C(c3ccc(O)cc3)c3cc(Cl)ccc3N(C)C2=O)cc1` (stereo not drawn) [Compound 8, (Z)-3-(4-Isopropylbenzyl)-7-chloro-5-(4-hydroxyphenyl)-1-methyl-1H-benzo[e][1,4]diazepin-2(3H)-one], the results for the inhibition at 1 µM (in assay [1] (1 μM); in the assay on human keratinocytes (KC) (1 μM)) were below 20% and at least 20%, respectively. The inhibition at 0.05 µM (in assay [1] (0.05 μM); with human keratinocytes (KC) (0.05 μM)) was below 20% in each case. The inhibition at 0.1 µM (in assay [1] (0.1 μM); in the assay on human keratinocytes (KC) (0.1 μM)) was below 20% in each case. For the same compound, the inhibition at 0.5 µM in assay [1] (0.5 μM) was below 20%; in the assay on human keratinocytes (KC) (0.5 μM), at least 20%. In addition, the inhibition at 5 µM (in assay [1] (5 μM); in the assay with human keratinocytes (KC) (5 μM)) was at least 90% throughout. The inhibition at 10 µM (in assay [1] (10 μM); in the assay with human keratinocytes (KC) (10 μM)) was at least 90% in each case.
In the case of `CC(C)c1ccc(C(C)C)c(CC2N=C(c3ccc(O)cc3)c3cc(Cl)ccc3NC2=O)c1` (stereo not drawn) [Compound 9, (Z)-3-(2,5-Diisopropylbenzyl)-7-chloro-5-(4-hydroxyphenyl)-1H-benzo[e][1,4]diazepin-2(3H)-one], the inhibition at 1 µM in assay [1] (1 μM) was below 20%; in the assay on human keratinocytes (KC) (1 μM) it was at least 20%. The inhibition at 0.05 µM (in assay [1] (0.05 μM); in the assay with human keratinocytes (KC) (0.05 μM)) was below 20% in each case. In addition, the inhibition at 0.1 µM (in assay [1] (0.1 μM); with human keratinocytes (KC) (0.1 μM)) was below 20% throughout. Moreover, the values for the inhibition at 0.5 µM (in assay [1] (0.5 μM); in the assay on human keratinocytes (KC) (0.5 μM)) were below 20% and at least 20%, respectively. Also, the inhibition at 5 µM (in assay [1] (5 μM); with human keratinocytes (KC) (5 μM)) was at least 90% in each case. Further, the inhibition at 10 µM (in assay [1] (10 μM); with human keratinocytes (KC) (10 μM)) was at least 90% each time.
Take `CC(C)c1ccc(C(C)C)c(CC2N=C(c3ccc(O)cc3)c3cc(Cl)ccc3N(C)C2=O)c1` (stereo not drawn) [Compound 10, (Z)-3-(2,5-Diisopropylbenzyl)-7-chloro-5-(4-hydroxyphenyl)-1-methyl-1H-benzo[e][1,4]diazepin-2(3H)-one]: the inhibition at 1 µM is below 20% in assay [1] (1 μM) and at least 20% in the assay with human keratinocytes (KC) (1 μM). Further, the inhibition at 0.05 µM (in assay [1] (0.05 μM); in the assay on human keratinocytes (KC) (0.05 μM)) was below 20% in each case. For the same compound, the inhibition at 0.1 µM (in assay [1] (0.1 μM); with human keratinocytes (KC) (0.1 μM)) was below 20% throughout. The inhibition at 0.5 µM (in assay [1] (0.5 μM); in the assay on human keratinocytes (KC) (0.5 μM)) was below 20% each time. Further, the inhibition at 5 µM (in assay [1] (5 μM); in the assay with human keratinocytes (KC) (5 μM)) was at least 90% throughout. Moreover, the inhibition at 10 µM (in assay [1] (10 μM); in the assay with human keratinocytes (KC) (10 μM)) was at least 90% throughout.

Source of the values: patent publication US8759340B2, “Benzodiazepinone compounds useful in the treatment of skin conditions” (The Regents of the University of Michigan, priority 2007, dated 2014).
